The target of one series is T1, LAT1 (Homo sapiens, UniProt Q01650).
T1 construct: Using human bladder cancer cell strain T24 cells, in which LAT1 only was strongly expressed; endogenous in cells; host or cells: T24 human bladder cancer cells
The experiment in a line: LAT1 inhibiting activity: inhibition of 14C-L-leucine uptake in T24 cells. Format: cell-based. The settings on record: 1 μM 14C-Leu, 1-minute uptake. The method, then: 1) To each of the weighed test compounds, DMSO was added to prepare a 100 mM solution or suspension as a DMSO stock. In an assay, the stock was diluted 1,000 fold with a buffer described below. The final concentration of the test compound was 100 μM and the final concentration of DMSO was 0.1%.
2) The LAT1 inhibiting activity of the test compound was determined in the following manner. Using human bladder cancer cell strain T24 cells, in which LAT1 only was strongly expressed, inhibiting activity of each test compound against “^14C”-L-leucine uptake was determined as the LAT1 inhibiting activity.
T24 cells in a logarithmic growth-phase were transferred to a 24-well plate at 0.8×10^5 cell/well and cultured at 37° C. for 2 days. After the plate was incubated at 37° C. on a water bath for 5 minutes, the fixed cells were washed three times with a Hank's balanced salt solution (HBSS: 25 mM HEPES, 125 mM choline chloride, 5.6 mM glucose, 4.8 mM KCl, 1.2 mM MgSO4, 1.2 mM KH2PO4, 1.3 mM CaCl2, pH 7.4) warmed to 37° C., not containing Na^+, to which 500 μl of HBSS (37° C.) was added. Then, further incubation was carried out for 7 minutes.
After the incubation was finished, a supernatant was replaced with HBSS containing 1 μM ^14C-Leu and 100 μM test compound (37° C.), followed by 1-minute uptake. Then, the cells were washed three times with HBSS of 4° C. The washed cells were added with 500 μl of 0.1 N NaOH to dissolve the cells for 20 minutes. The cell solution was transferred to a vial, to which 3 ml of a scintillator was added to measure the radioactivity with a liquid scintillation counter.
Inhibition % was calculated by the following formula. Inhibition %=100−(radioactivity of the well added with the test compound)/(radioactivity of the well not added with the test compound)×100

Series [1] in a line: Acute toxicity test, intravenous administration of mice (LD50). The note with it: mouse, in vivo. The method, then:
Further, with respect to the compounds of Examples 77-79 and Example 98, an acute toxicity test for intravenous administration of mice were carried out to obtain LD50.

Series [2] deals with T2, human LAT1 (hLAT1) (Homo sapiens, UniProt Q01650).
T2 construct: expressed in transfected cells; host or cells: Xenopus laevis oocytes injected with cRNA
T2 sequence (Q01650 whole entry): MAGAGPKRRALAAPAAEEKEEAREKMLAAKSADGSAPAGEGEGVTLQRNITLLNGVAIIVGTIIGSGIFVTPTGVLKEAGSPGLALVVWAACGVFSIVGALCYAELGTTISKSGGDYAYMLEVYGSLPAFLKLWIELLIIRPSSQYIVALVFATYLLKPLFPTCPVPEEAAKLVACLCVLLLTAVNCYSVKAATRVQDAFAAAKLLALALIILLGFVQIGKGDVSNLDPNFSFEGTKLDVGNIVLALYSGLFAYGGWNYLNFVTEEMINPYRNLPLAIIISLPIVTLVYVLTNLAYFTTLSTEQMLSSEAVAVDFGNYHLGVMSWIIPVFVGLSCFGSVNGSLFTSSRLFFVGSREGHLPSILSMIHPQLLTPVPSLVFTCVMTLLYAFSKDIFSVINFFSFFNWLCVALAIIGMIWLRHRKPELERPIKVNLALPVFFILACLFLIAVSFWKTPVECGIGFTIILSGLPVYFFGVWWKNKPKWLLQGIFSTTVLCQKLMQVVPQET
The experiment in a line: Inhibition of leucine uptake into hLAT1 expressing Xenopus oocytes. Format: cell-based. The note with it: 10 μM 14C-Leu, 30 minutes uptake, oocytes with hLAT1 and h4F2hc cRNA. The method, then:
(§1) 1) First, human LAT1 (hereinafter referred to as hLAT1), human LAT2 (hereinafter referred to as hLAT2) and human 4F2hc (hereinafter referred to as h4F2hc) were linearized by restriction enzyme treatment. After ethanol precipitation, they were dissolved in a DEPC treatment solution to prepare a mold cDNA. Then, in vitro transcription reaction was carried out in the following manner.
(§2) Reaction composition (50 μl in total) • Mold cDNA 1.5 μg • RNasin RNase inhibitor (Promega) 100 U • rNTP (Amersham. Pharmacia) 10 mM each (rGTP was 1 mM) • DTT 30 mM • m7G(5′)ppp(5′)G (Amersham. Pharmacia) […] • RNA polymerase (Stratagene) 50 U • Transcription buffer
(§3) As the RNA polymerase for hLAT1, hLAT2 and h4F2hc, T3, SP6 and T7 were used, respectively.
(§4) After the above reagents were mixed, they were reacted at 37° C. for 10 minutes, added with 1 μL of 5 mM rGTP, and reacted again at 37° C. for 10 minutes. Further, 1 μL of 5 mM rGTP was added and the reaction was carried out again at 37° C. for 10 minutes. Then, RNase-free DNase (Stratagene) was added and mixed, followed by incubation at 37° C. for 20 minutes. The reaction solution was sequentially extracted with phenol/chloroform, and then with chloroform. Then, half amount of 7.5 M NH4OAc and 2.5-fold amount of cold ethanol were added to perform ethanol precipitation. After centrifugation at 15000 rpm for 30 minutes, the resulting precipitate was washed with cold 80% ethanol and dissolved in 100 μL of a DEPC treatment solution. Thereafter, ethanol precipitation was performed again. The precipitate obtained by centrifugation at 15000 rpm for 30 minutes was washed with cold 80% ethanol and dried for 20 minutes in a centrifugal concentrator. Then, it was dissolved in a DEPC treatment solution to 0.5 mg/mL to prepare a cRNA solution. Thus, cRNA was prepared by in vitro transcription reaction.
(§5) 2) Xenopus laevis was anesthetized by immersing into an anesthetic solution (0.2% MS-222, 0.3% KHCO3), and then cut open in the abdominal region on ice to take out an oocyte mass under the peritoneum. The extracted oocyte mass was shredded with tweezers, which was added to an OR2 culture medium (5 mM HEPES, 82.5 mM NaCl, 2 mM KCl, 1 mM MgCl2, pH 7.5) containing 2 mg/mL of collagenase, incubated at room temperature for about 30 minutes, washed with the OR2 culture medium and transferred into a Barth culture medium (10 mM HEPES, 88 mM NaCl, 1 mM KCl, 0.33 mM Ca(NO3)2, 0.41 mM CaCl2, 0.82 mM MgSO4, 2.4 mM NaHCO3, pH 7.4).
(§6) Then, a follicular cell layer covering the oocytes was peeled under a stereoscopic microscope to isolate the oocytes, to which 50 nL of a cRNA solution was added, respectively. As the cRNA, an equimolar mixture of hLAT1 cRNA and h4F2hc cRNA was injected into the oocytes for hLAT1 expression, and an equimolar mixture of hLAT2 cRNA and h4F2hc cRNA was injected into the oocytes for hLAT2 expression.
(§7) The control cell was injected with distilled water.
(§8) 3) The oocytes after the injection were cultured in a Barth culture medium containing gentamicin for 2 days, from which healthy oocytes were selected and transferred to a 24-well plate at 8-10 cell/well.
(§9) First, after washing twice with choline 100 (5 mM HEPES, 100 mM choline Cl, 2 mM KCl, 1.8 mM CaCl2, 1 mM MgCl2, pH 7.4) at room temperature, choline 100 containing 10 μM ^14C-Leu and specimens of various concentrations was added for an uptake for 30 minutes. Then, after washing with choline 100 of 4° C. six times, the oocytes were transferred to vials one by one and 250 μL of 10% SDS was added thereto, which was shaken at room temperature for an hour to be dissolved. After an hour, the solution was added with 3 mL of a scintillator to measure the radioactivity using a liquid scintillation counter. Inhibition rate was calculated by the following formula using an average value of 8 to 10 cells. Inhibition rate (%)=100−(radioactivity of the well added with the test compound)/(radioactivity of the well not added with the test compound)×100 […]

For series [3], the system named is human LAT1 (hLAT1). The description is as above. Format: cell-based. The settings on record: IC50 hLAT2 expressing cells / IC50 hLAT1 expressing cells. The method, then: as §1, §2, §3, §4, §5, §6, §7, §8, §9
The subject of a further series is sarcoma 180 cells. The experiment in a line: Sarcoma 180 subcutaneous implant in mice, tumor weight. Format: in vivo, ICR mice. The settings on record: 100 mg/kg intravenously for 7 days; tumor weight 10 days after implantation. As to the method: In an inguinal region of ICR mice, 1×10^6 sarcoma 180 cells were implanted subcutaneously. After 24 hours from the implantation, administration of the test compounds (Example 6-3) and Example 49-3)) was started, which was continued intravenously for 7 days. Each of the test compounds was dissolved in a physiologic saline containing 10% DMSO and 10% Tween 80 so that the amount of the test compound became 100 mg/kg, which was intravenously administered in an amount of 0.1 ml per 10 g of body weight. After 10 days from the implantation, tumor weight was measured and a proliferation inhibiting rate was calculated by the following formula to be compared with that of nontreated controls. Proliferation inhibiting rate (T/C)=[1−(average tumor weight of the group added with the test compound/average tumor weight of the control group)]×100

The target of another series is T3, human LAT2 (hLAT2) (Homo sapiens, UniProt Q9UHI5).
T3 construct: expressed in transfected cells; host or cells: Xenopus laevis oocytes injected with cRNA
T3 sequence (Q9UHI5 1-535): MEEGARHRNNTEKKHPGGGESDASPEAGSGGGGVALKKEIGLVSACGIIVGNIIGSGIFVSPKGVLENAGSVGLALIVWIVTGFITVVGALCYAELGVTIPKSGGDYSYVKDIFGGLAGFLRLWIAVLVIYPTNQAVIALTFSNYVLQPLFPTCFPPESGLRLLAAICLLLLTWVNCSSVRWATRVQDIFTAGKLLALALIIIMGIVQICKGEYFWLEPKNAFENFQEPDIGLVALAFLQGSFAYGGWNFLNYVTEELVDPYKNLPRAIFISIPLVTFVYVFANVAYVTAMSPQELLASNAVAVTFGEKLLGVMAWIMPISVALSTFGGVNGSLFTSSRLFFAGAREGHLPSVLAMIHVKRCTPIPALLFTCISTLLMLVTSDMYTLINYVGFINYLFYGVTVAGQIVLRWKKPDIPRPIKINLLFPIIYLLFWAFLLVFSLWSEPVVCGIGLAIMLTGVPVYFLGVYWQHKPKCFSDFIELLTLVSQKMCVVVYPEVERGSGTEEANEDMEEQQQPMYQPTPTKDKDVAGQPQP
The experiment in a line: Inhibition of leucine uptake into hLAT2 expressing Xenopus oocytes. The note with it: 10 μM 14C-Leu, 30 minutes uptake, oocytes with hLAT2 and h4F2hc cRNA. The series is classed as cell-based. The method, then: as §1, §2, §3, §4, §5, §6, §7, §8, §9

The term IC50 denotes the concentration that gives 50% inhibition. High values mean lower potency, low ones higher potency. In general, LD50 refers to the dose expected to kill half of the subjects tested. The melting point is the temperature of the solid-liquid transition.

T1 sequence (Q01650 whole entry): as the sequence (Q01650 whole entry) above
T1 sequence (P08195 102-630 partner): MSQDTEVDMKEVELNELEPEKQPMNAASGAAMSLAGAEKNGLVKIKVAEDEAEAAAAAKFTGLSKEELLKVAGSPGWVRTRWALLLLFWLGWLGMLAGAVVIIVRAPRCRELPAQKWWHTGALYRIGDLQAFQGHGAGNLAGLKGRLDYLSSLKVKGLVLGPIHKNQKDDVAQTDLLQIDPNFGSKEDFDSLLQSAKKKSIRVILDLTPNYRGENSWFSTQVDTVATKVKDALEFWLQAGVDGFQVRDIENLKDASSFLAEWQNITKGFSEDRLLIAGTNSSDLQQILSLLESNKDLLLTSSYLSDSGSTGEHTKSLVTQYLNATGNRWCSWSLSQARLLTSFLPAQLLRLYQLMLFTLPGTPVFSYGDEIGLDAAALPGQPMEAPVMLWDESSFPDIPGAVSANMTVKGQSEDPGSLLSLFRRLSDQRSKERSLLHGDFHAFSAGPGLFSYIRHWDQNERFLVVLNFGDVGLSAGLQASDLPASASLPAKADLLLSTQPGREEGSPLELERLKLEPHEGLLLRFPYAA

Consider `NC1(C(=O)O)CC2CCC1C2` (stereo not shown) [BCH, 2-aminobicyclo-(2,2,1)-heptane-2-carboxylic acid, reference compound], for which the IC50 against LAT1 is 100000 nM. For the same compound, the 50% lethal dose (LD50) in series [1] was at least 300 mg/kg.
Consider `N[C@@H](Cc1cc(Cl)c(OCc2cccc3nc(-c4ccccc4)oc23)c(Cl)c1)C(=O)O` [Example 6-2), 3,5-dichloro-O-[(2-phenyl)-benzoxazol-7-yl]methyl-L-tyrosine], for which the melting point was 233 to 238 °C (dec.). Besides, half-maximal inhibition at human LAT1 (hLAT1) [2] (IC50) was put at 100 nM. The “Selectivity (L2/L1)” value in the series on human LAT1 (hLAT1) [3] is on record as 1000 times. Also, on LAT1, the midpoint of inhibition, the IC50, lay at 300 nM.
`COC(=O)[C@@H](N)Cc1cc(Cl)c(OCc2cccc3nc(-c4ccccc4)oc23)c(Cl)c1.Cl` [Example 6-3), 3,5-Dichloro-O-[(2-phenyl)-benzoxazol-7-yl]methyl-L-tyrosine methyl ester hydrochloride]: the melting point was 225 to 225.5 °C (dec.). Further, the proliferation inhibiting rate with sarcoma 180 cells is reported as 52.2%.
Regarding `N[C@@H](Cc1cc(Cl)c(OCCc2coc(-c3ccccc3)n2)c(Cl)c1)C(=O)O` [Example 9], the melting point was in the range of 198 to 205 °C. In addition, half-maximal inhibition on human LAT2 (hLAT2) (IC50) was put at 69000 nM. The half-maximal inhibitory concentration (IC50) against human LAT1 (hLAT1) [2] amounted to 700 nM. In the series on human LAT1 (hLAT1) [3], the “Selectivity (L2/L1)” value came to 100 times.
Regarding `N[C@@H](Cc1cc(Cl)c(OCCc2csc(-c3ccccc3)n2)c(Cl)c1)C(=O)O` [Example 15], the melting point is 205 to 210 °C (dec.). The IC50 at human LAT2 (hLAT2) is over 100000 nM. The compound also had a half-maximal inhibitory concentration (IC50) against human LAT1 (hLAT1) [2] of under 1000 nM. Besides, in the series on human LAT1 (hLAT1) [3], the “Selectivity (L2/L1)” value is on record as at least 100 times.
`N[C@@H](Cc1cc(Cl)c(OCCc2coc(-c3ccc4ccccc4c3)n2)c(Cl)c1)C(=O)O` [Example 17]: the melting point is 232 to 233 °C (dec.). This compound also registered a half-maximal inhibitory concentration (IC50) on human LAT2 (hLAT2) of over 100000 nM. The half-maximal inhibitory concentration (IC50) against human LAT1 (hLAT1) [2] is under 1000 nM. In the series on human LAT1 (hLAT1) [3], the “Selectivity (L2/L1)” value is on record as at least 100 times.
The matching figures for `N[C@@H](Cc1cc(Cl)c(OCCc2cccc3nc(-c4ccccc4)oc23)c(Cl)c1)C(=O)O` [Example 23]: 205 to 215 °C (dec.), over 100000 nM, under 1000 nM and at least 100 times.
As for `COC(=O)[C@@H](N)Cc1cccc(Oc2ccc3ccccc3c2)c1.Cl` [Example 49-3), 3-(2-naphthyloxy)-L-phenylalanine methyl ester hydrochloride], the melting point was 209 to 211 °C (dec.). Further, in the series on sarcoma 180 cells, the proliferation inhibiting rate came out at 41.3%.
`N[C@@H](Cc1cccc(Oc2ccc(Oc3ccc(O)cc3)cc2)c1)C(=O)O` [Example 57, 3-[4-(4-hydroxyphenoxy)phenoxy]-L-phenylalanine]: the melting point is 234 to 237 °C (dec.). At human LAT2 (hLAT2), this compound yielded a 50% inhibitory concentration (IC50) of 200 nM. In the series with human LAT1 (hLAT1) [3], the “Selectivity (L2/L1)” value amounted to 0.02 times.
Regarding `N[C@@H](Cc1cccc(OCCc2ccc3ccccc3c2)c1)C(=O)O` [Example 59, 3-[2-(2-naphthyl)ethoxy]-L-phenylalanine], the melting point was 210 to 214 °C (dec.). At human LAT2 (hLAT2), this compound had a half-inhibitory concentration (IC50) of under 1000 nM. Further, in the series with human LAT1 (hLAT1) [3], the “Selectivity (L2/L1)” value is at most 0.1 times.
Consider `N[C@@H](Cc1cccc(OCCc2ccc3c(c2)CCCC3)c1)C(=O)O` [Example 60, 3-[2-[2-(5,6,7,8-tetrahydro-naphthyl)]ethoxy]-L-phenylalanine], for which the melting point is 198 to 202 °C (dec.). The compound further displayed an IC50 against human LAT2 (hLAT2) of under 1000 nM. Besides, the “Selectivity (L2/L1)” value with human LAT1 (hLAT1) [3] is at most 0.1 times.
With `N[C@@H](Cc1cccc(-c2cccc(-c3ccccc3)c2)c1)C(=O)O` [Example 112], the melting point was 199 to 201 °C (dec.). Further, the midpoint of inhibition against LAT1, the IC50, lay at 810 nM.
